Results published in PMC12348844, “Anti-Trypanosoma cruzi Potential of New Pyrazole-Imidazoline Derivatives” (Molecules, 2025).
Read-outs that look alike come from different tables or passages of the source.

Columns and labels:
[1] = system: T. cruzi cysteine protease; assay: Cysteine protease activity in trypomastigote protein extract (Z-Phe-Arg-AMC); format: biochemical, Trypanosoma cruzi; details: 90 min, 37 °C, 33.3, 100 and 300 µM tested
Description: Total proteins from T. cruzi Dm28c-Luc were extracted using a lysis buffer [100 mM Tris-HCl pH 8.0, 150 mM NaCl, 10% glycerol, 0.5% Triton X-100]. The protein concentration was quantified using the Bradford assay, with bovine serum albumin (BSA) used to establish the standard curve. For the assessment of cysteine protease activity, 5 μg of the protein extract was incubated in an acetate buffer [10 mM sodium acetate, pH 5.0], supplemented with 1 mM dithiothreitol (DTT) in a final volume of 100 μL. The reaction used a fluorogenic peptide substrate, N-benzoyloxycarbonyl-L-phenylalanyl-L-arginine 7-amino-4-methylcoumarin (Z-FR-AMC), at a concentration of 60 μM. Incubation was conducted at 37 °C for 90 min, with relative fluorescence changes measured using a SpectraMax M2e spectrophotometer (Molecular Devices, Sunnyvale, CA, USA). Inhibition assays were performed using three concentrations (33.3, 100, and 300 µM) of the promising candidate and trans-epoxysuccinyl-L-leucylamido(4-guanidino)butane (E-64), each analyzed separately. A control was included using a low DMSO concentration (≤1%). Enzymatic activity was expressed in µmol/min/mg of protein, with residual activity presented as a percentage.

[2] = Cytotoxicity assay, Vero cells (CellTiter-Glo); format: cell-based; details: African green monkey, mean ± SD
Description: Vero cells, obtained from the Rio de Janeiro Cell Bank (BCRT code 0245) and maintained through weekly subculturing with a dissociation solution containing 0.25% trypsin-EDTA, initiated once the monolayer reached an 80–100% confluence. Following harvesting, the cells were washed and resuspended in RPMI 1640 medium enriched with 10% fetal bovine serum (FBS). Cultures were maintained at 37 °C in a 5% CO2-humidified incubator. These cultures were used for drug screening assays and for producing culture-derived trypomastigotes of T. cruzi.
Cytotoxicity assays were performed using Vero cells, which were seeded at a density of 1.5 × 10^4 cells per well in white 96-well plates with clear bottoms. Following a 24 h adhesion period, the cultures were incubated at 37 °C in a 5% CO2 atmosphere. […] After 72 h of incubation, cell viability was assessed by adding CellTiter-Glo reagent (Promega Corporation, Madison, WI, USA), which induces cell lysis and reacts with the released ATP to produce luminescence. The resulting luminescence was measured using a Glomax Multi-Detection plate reader (Promega Corporation, Madison, WI, USA). The half-maximal inhibitory concentration (CC50) for cell viability was then calculated using GraphPad Prism software version 8.2.1.

[3] = system: T. cruzi Dm28c-Luc trypomastigotes; assay: Anti-T. cruzi in vitro assay, trypomastigotes (luminescence); format: cell-based; details: Trypanosoma cruzi, 24 h, mean ± SD
Description: (§1) The genetically modified Trypanosoma cruzi, clone Dm28c (TcI), expressing luciferase (Dm28c-Luc), was kindly provided by Dr. Cristina Henriques from Oswaldo Cruz Institute—Fiocruz. The parasites were maintained using Vero cell cultures in RPMI 1640 medium enriched with 10% FBS. At 4 days post-infection (dpi), the trypomastigotes released into the culture supernatant were harvested, subjected to centrifugation at 800× g for 20 min at 4 °C, and quantified with a Neubauer chamber. The isolated trypomastigotes were subsequently used for phenotypic screening, drug efficacy assessments employing a 3D cardiac model, washout experiments to evaluate reversibility, drug combination studies, and enzymatic assays.
Drug susceptibility assays were performed on T. cruzi Dm28c-Luc, a genetically engineered parasite expressing luciferase. The drug screening used both trypomastigotes and intracellular amastigotes. Trypomastigotes (1 × 10^6 parasites/well) were added to white 96-well plates with clear bottoms. […] The luminescence was measured using a Glomax Multi-Detection plate reader (Promega Corporation, Madison, WI, USA).

[4] = system: T. cruzi Dm28c-Luc intracellular amastigotes; assay: Anti-T. cruzi in vitro assay, intracellular amastigotes in Vero cells (luminescence); format: cell-based, Trypanosoma cruzi; details: for IC50 / IC90: Trypanosoma cruzi
Description: as §1
To evaluate the effect of pyrazole-imidazoline derivatives against intracellular amastigotes, Vero cells (1.5 × 10^4 cells/well) were cultured in a white 96-well plate with a clear bottom and subsequently infected with T. cruzi Dm28c-Luc at a 10:1 parasite-to-host cell ratio for 24 h. […] Parasite viability was measured by luminescence following the addition of luciferin (300 µg/mL). Background measurements (non-infected cultures incubated with luciferin, as well as luciferin-only controls) were performed to ensure the signal specifically originates from viable parasites. The IC50 and IC90 values, denoting the concentrations that achieve 50% and 90% reductions in viable parasites, respectively, were calculated using GraphPad Prism 8.2.1 software. Additionally, the selectivity index (SI) was calculated as the cytotoxic concentration (CC50) ratio in mammalian cells to the IC50 against T. cruzi, providing insight into the therapeutic window. Potency against intracellular amastigotes was evaluated using the formula 6—Log10 (IC50).

T. cruzi (Dm28c-Luc) = assay: Reversibility (washout) assay in T. cruzi-infected Vero cells; format: cell-based, Trypanosoma cruzi
Description: After treatment, the cultures were thoroughly washed, and parasite recrudescence was evaluated over an extended period of 10 days in RPMI medium supplemented with 10% fetal bovine serum (FBS). Culture supernatants were collected at intervals, and the luminescence signal indicative of trypomastigote release was assessed using a Glomax Multi-Detection plate reader (Promega Corporation, Madison, WI, USA) following the addition of luciferin every 2–3 days. At the experiment’s conclusion, the infection profile of the monolayer was also examined. Cells were fixed with PFA for 20 min at 4 °C, then stained with DAPI for microscopy analysis. Luminescence data were expressed in arbitrary luminescent units (A.L.U), and fluorescence images were acquired using the ImageXpress Micro XLS high-content screening (HCS) system (Molecular Devices, Sunnyvale, CA, USA).

[5] = system: intracellular amastigotes of T. cruzi; assay: Drug combination with Bz, fixed-ratio isobologram, intracellular amastigotes; format: cell-based; details: Trypanosoma cruzi; proportion 1k:Bz 0:5, 72 h; read-out: IC50 (Mean ± DP) in combination assay
Description: The isobologram approach assessed the interaction between Bz and the promising candidate in intracellular amastigotes of T. cruzi. Vero cell cultures infected with T. cruzi (Dm28c-Luc) were treated for 72 h with various concentrations of combinations of Bz and the promising candidate, specifically at ratios of 5:0; 4:1; 3:2; 2:3; 1:4 and 0:5. The maximum concentration of each compound was established based on their IC50 values, ensuring both reached the fourth dilution in the serial dilution setup (1:3), culminating in a total of seven dilutions. After 72 h of treatment, parasite viability was measured by luminescence in a Glomax Multi-Detection plate reader (Promega Corporation, Madison, WI, USA) after incubation with luciferin. The IC50 values of each treatment combination were calculated individually, and the fractional inhibitory concentration index (FICI) was derived using the formula FICI = IC50 of the combination/IC50 of the compound alone. The overall FICI (ΣFICI) was calculated by summing the FICIs for both compounds in each combination group, while the average ΣFICI (xΣFICI) represented the overall mean across all combination groups. The xΣFICI values were then employed to classify the interaction as synergistic (xΣFICI ≤ 0.5), additive (0.5 < xΣFICI < 4), or antagonistic (xΣFICI > 4). […]

[6] = Vero, intracellular amastigotes, 6 − Log10(IC50), read-out: pIC50 (potency) (converted)
[7] = 72 h, Dm28c-Luc in Vero cells, mean ± SD

Row | SMILES | inhibition of cysteine protease activity [1] | CC50 at 72 h [2] | IC50 [3] | IC90 [3] | SI (selectivity index = CC50/IC50) ([4]; CC50 Vero cells / IC50 intracellular amastigotes) | IC50 ([4]; Vero, 72 h, Dm28c-Luc in Vero cells, mean ± SD, read-out: Intracellular Amastigotes IC50) | IC50 [4, 6] | IC90 [4, 7] | reduction of parasite load of cell monolayer at 21 dpi (T. cruzi (Dm28c-Luc); 100 µM, 10 days treatment + 10 days washout) | parasite load of cell monolayer at 21 dpi (luminescence) (T. cruzi (Dm28c-Luc); 100 µM, untreated 5 × 10^5 A.L.U) | sterility of cultures in reversibility assay (T. cruzi (Dm28c-Luc); 10 days treatment, tested conditions) | IC50 [5] | IC50 ([4]; 72 h, Dm28c-Luc in Vero cells, mean ± SD, read-out: Intracellular Amastigotes IC50)
1 | CC(C)C[C@H](NC(=O)[C@H]1O[C@@H]1C(=O)O)C(=O)NCCCCN=C(N)N (relative stereo) [E-64, trans-epoxysuccinyl-L-leucylamido(4-guanidino)butane, reference compound] | 92.81% |  |  |  |  |  |  |  |  |  |  |  | 
2 | FC(F)(F)c1cc(-n2cc(C3=NCCN3)cn2)cc(C(F)(F)F)c1 [1m, 1-((3,5-ditrifluoromethyl)phenyl)-4-(4,5-dihydro-1H-imidazol-2-yl)-1H-pyrazole] |  | 114 ± 11.9 µM | > 100 µM | > 100 µM | 3.5 | 32.4 ± 5.9 µM | 31.6 µM | 80.7 ± 0.4 µM |  |  |  |  | 
3 | O=C(Cn1ccnc1[N+](=O)[O-])NCc1ccccc1 [Bz, Benznidazole, reference compound] |  | > 500 µM | 20.5 ± 1.8 µM | > 100 µM |  |  | 2.51 µM | 10.4 ± 0.5 µM | 98.4% | 8 × 10^3 A.L.U | failed to achieve sterility | 2.3 ± 0.07 µM | 2.2 ± 0.4 µM
